Assay results as given in ChEMBL document CHEMBL4619821, “Bioinspired Hybrid Fluorescent Ligands for the FK1 Domain of FKBP52” (J Med Chem, 2020).
The source made the active and inactive calls. The rule behind the calls is not given here. Square brackets hold non-standard residues; d marks the D form. Peptide text beside a SMILES is read from it. * marks the point of attachment. Pro(trans-4-F) = O=C(O)[C@@H]1C[C@@H](F)CN1; Dansyl = CN(C)c1cccc2c(S(=O)(=O)*)cccc12; Pro(cis-4-F) = O=C(O)[C@@H]1C[C@H](F)CN1; Hyp = O=C(O)[C@@H]1C[C@@H](O)CN1; hPhe = N[C@@H](CCc1ccccc1)C(=O)O; 2Pal = N[C@@H](Cc1ccccn1)C(=O)O; 3Pal = N[C@@H](Cc1cccnc1)C(=O)O; 4Pal = N[C@@H](Cc1ccncc1)C(=O)O; Tic = O=C(O)[C@@H]1Cc2ccccc2CN1; Tle = CC(C)(C)[C@H](N)C(=O)O; Pip = O=C(O)[C@@H]1CCCCN1; Ac5c = NC1(C(=O)O)CCCC1

Experiments:
[1] = target: T1, Peptidyl-prolyl cis-trans isomerase FKBP4 (Homo sapiens, UniProt Q02790); assay: (§1) Binding affinity to FKBP52 FK1 domain (1 to 148 residues) (unknown origin) by Dansyl fluorescence based assay
T1 sequence (Q02790 whole entry): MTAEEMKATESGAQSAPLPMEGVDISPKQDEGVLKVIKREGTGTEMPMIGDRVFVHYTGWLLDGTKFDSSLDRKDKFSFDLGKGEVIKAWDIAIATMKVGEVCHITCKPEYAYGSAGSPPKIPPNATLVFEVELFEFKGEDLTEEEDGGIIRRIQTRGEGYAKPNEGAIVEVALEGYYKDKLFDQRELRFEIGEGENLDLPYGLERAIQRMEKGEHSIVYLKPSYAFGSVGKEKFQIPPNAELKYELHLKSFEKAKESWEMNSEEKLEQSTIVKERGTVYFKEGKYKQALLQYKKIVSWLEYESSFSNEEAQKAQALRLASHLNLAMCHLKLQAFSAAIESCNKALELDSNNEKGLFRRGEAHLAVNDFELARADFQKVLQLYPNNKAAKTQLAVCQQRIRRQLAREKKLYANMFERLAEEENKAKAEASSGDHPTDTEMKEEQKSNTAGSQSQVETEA

[2] = target: T1, Peptidyl-prolyl cis-trans isomerase FKBP4; assay: Binding affinity to FKBP52 FK1 domain (1 to 148 residues) (unknown origin) by isothermal calorimetric analysis
[3] = target: T2, Peptidyl-prolyl cis-trans isomerase FKBP4 (Homo sapiens) (UniProt Q02790); assay: as §1
T2 sequence (whole entry): T1 sequence (Q02790 whole entry)

[4] = target: T2, Peptidyl-prolyl cis-trans isomerase FKBP4 (Homo sapiens); assay: Binding affinity to FKBP52 FK1 domain (1 to 148 residues) (unknown origin) assessed as increase in fluorescence at 10 uM by Dansyl fluorescence based assay relative to control
[5] = target: T2, Peptidyl-prolyl cis-trans isomerase FKBP4 (Homo sapiens); assay: Binding affinity to FKBP52 FK1 domain (1 to 148 residues) (unknown origin) in PBS at 20 uM in presence of one equivalent FK506 by FRET assay
[6] = target: T2, Peptidyl-prolyl cis-trans isomerase FKBP4 (Homo sapiens); assay: Binding affinity to FKBP52 FK1 domain (1 to 148 residues) (unknown origin) in PBS assessed as induction of blue shift by measuring emission wavelength at 10 to 20 uM by fluorimetric analysis (reference value: 560 nm)
[7] = target: T2, Peptidyl-prolyl cis-trans isomerase FKBP4 (Homo sapiens); assay: Binding affinity to FKBP52 FK1 domain (1 to 148 residues) (unknown origin) in PBS assessed as quenching of Trp emission at 10 to 20 uM by fluorimetric analysis
[8] = target: T2, Peptidyl-prolyl cis-trans isomerase FKBP4 (Homo sapiens); assay: Binding affinity to FKBP52 FK1 domain (1 to 148 residues) (unknown origin) at 10 uM in presence of FK506 by Dansyl fluorescence based assay
[9] = target: T2, Peptidyl-prolyl cis-trans isomerase FKBP4 (Homo sapiens); assay: Binding affinity to FKBP52 FK1 domain (1 to 148 residues) (unknown origin) assessed as blue shift at 10 uM by Dansyl fluorescence based assay
[10] = target: T2, Peptidyl-prolyl cis-trans isomerase FKBP4 (Homo sapiens); assay: Binding affinity to FKBP52 FK2 domain (167 to 253 residues) (unknown origin) in PBS at 10 uM by Dansyl fluorescence based assay relative to control
[11] = target: T1, Peptidyl-prolyl cis-trans isomerase FKBP4; assay: Binding affinity to FKBP52 FK1 domain (1 to 148 residues) (unknown origin) in PBS by fluorescence spectroscopy
[12] = target: T2, Peptidyl-prolyl cis-trans isomerase FKBP4 (Homo sapiens); assay: Binding affinity to FKBP52 FK1 domain (1 to 148 residues) (unknown origin) at 10 uM by Dansyl fluorescence based assay
[13] = Solubility of the compound; type: physicochemical

| Compound | Kd [2] [µM] | further results |
| --- | --- | --- |
| CN(C)c1cccc2c(S(=O)(=O)N3[C@H](C(=O)N[C@@H](CCc4ccccc4)C(=O)N[C@@H](CCCNC(=N)N)C(=O)O)CCC3(C)C)cccc12 |  | Kd [1]: > 50 µM |
| CN(C)c1cccc2c(S(=O)(=O)N3CCC[C@H]3C(=O)N[C@@H](CCc3ccccc3)C(=O)N[C@@H](CCCNC(=N)N)C(=O)O)cccc12 | 5 |  |
| CCCCN(CC(=O)N[C@@H](CCc1ccccc1)C(=O)N[C@@H](CCCNC(=N)N)C(=O)O)S(=O)(=O)c1cccc2c(N(C)C)cccc12 | > 50 |  |
| CN(C)c1cccc2c(S(=O)(=O)N3CCC[C@@H]3C(=O)N[C@@H](CCc3ccccc3)C(=O)N[C@@H](CCCNC(=N)N)C(=O)O)cccc12 | > 50 |  |
| CN(C)c1cccc2c(S(=O)(=O)N3CCC[C@H]3C(N)=O)cccc12 |  | Activity [3]: inactive |
| CN(C)c1cccc2c(S(=O)(=O)N3C[C@H](O)C[C@H]3C(=O)N[C@@H](CCc3ccccc3)C(=O)N[C@@H](CCCNC(=N)N)C(=O)O)cccc12 (Dansyl-[Hyp]-[hPhe]-Arg-OH) | > 50 |  |
| CN(C)c1cccc2c(S(=O)(=O)N3CCCC[C@H]3C(=O)N[C@@H](Cc3ccccc3)C(=O)N[C@@H](CCCNC(=N)N)C(=O)O)cccc12 (Dansyl-[Pip]-Phe-Arg-OH) | 5.8 |  |
| CN(C)c1cccc2c(S(=O)(=O)N3CCCC[C@H]3C(=O)N[C@@H](Cc3c[nH]c4ccccc34)C(=O)N[C@@H](CCCNC(=N)N)C(=O)O)cccc12 (Dansyl-[Pip]-Trp-Arg-OH) |  | Kd [1]: 20 µM |
| CN(C)c1cccc2c(S(=O)(=O)N3CCCC[C@H]3C(=O)N[C@@H](Cc3ccccn3)C(=O)N[C@@H](CCCNC(=N)N)C(=O)O)cccc12 (Dansyl-[Pip]-[2Pal]-Arg-OH) | 3.5 |  |
| CN(C)c1cccc2c(S(=O)(=O)N3CCCC[C@H]3C(=O)N[C@@H](Cc3cccnc3)C(=O)N[C@@H](CCCNC(=N)N)C(=O)O)cccc12 (Dansyl-[Pip]-[3Pal]-Arg-OH) | 3 |  |
| CN(C)c1cccc2c(S(=O)(=O)N3CCCC[C@H]3C(=O)N[C@@H](Cc3ccncc3)C(=O)N[C@@H](CCCNC(=N)N)C(=O)O)cccc12 (Dansyl-[Pip]-[4Pal]-Arg-OH) | > 50 |  |
| CN(C)c1cccc2c(S(=O)(=O)N3CCCC[C@H]3C(=O)NC3(C(=O)N[C@@H](CCCNC(=N)N)C(=O)O)CCCC3)cccc12 (Dansyl-[Pip]-[Ac5c]-Arg-OH) | 10 |  |
| CN(C)c1cccc2c(S(=O)(=O)N3CCCC[C@H]3C(=O)N3CCCC[C@H]3C(=O)N[C@@H](CCCNC(=N)N)C(=O)O)cccc12 (Dansyl-[Pip]-[Pip]-Arg-OH) | 1.1 |  |
| CN(C)c1cccc2c(S(=O)(=O)N3CCCC[C@H]3C(=O)N3Cc4ccccc4C[C@H]3C(=O)N[C@@H](CCCNC(=N)N)C(=O)O)cccc12 (Dansyl-[Pip]-[Tic]-Arg-OH) | > 50 |  |
| CN(C)c1cccc2c(S(=O)(=O)N3CCCC[C@H]3C(=O)N[C@H](C(=O)N[C@@H](CCCNC(=N)N)C(=O)O)C(C)(C)C)cccc12 (Dansyl-[Pip]-[Tle]-Arg-OH) | 2.9 |  |
| CN(C)c1cccc2c(S(=O)(=O)N3CCCC[C@H]3C(=O)N[C@@H](CCc3ccccc3)C(=O)N[C@@H](CCCNC(=N)N)C(=O)O)cccc12 (Dansyl-[Pip]-[hPhe]-Arg-OH) | 1.6 | fold change (FC) [4]: 4; Activity [5]: inactive; Activity [6]: 537 nm; Activity [7]: 67%; Activity [8]: inactive; Activity [9]: 30 nm; Activity [10]: inactive; Kd [11]: 4.6 µM |
| CN(C)c1cccc2c(S(=O)(=O)N3CCCC[C@H]3C(=O)N[C@@H](CCc3ccccc3)C(=O)O)cccc12.O=C(O)C(F)(F)F (Dansyl-[Pip]-[hPhe]-OH) |  | Activity [12]: inactive; solubility [13]: Insoluble |
| CN(C)c1cccc2c(S(=O)(=O)N3C[C@@H](F)C[C@H]3C(=O)N[C@@H](CCc3ccccc3)C(=O)N[C@@H](CCCNC(=N)N)C(=O)O)cccc12 (Dansyl-[Pro(cis-4-F)]-[hPhe]-Arg-OH) | 1.3 |  |
| CN(C)c1cccc2c(S(=O)(=O)N3C[C@H](F)C[C@H]3C(=O)N[C@@H](CCc3ccccc3)C(=O)N[C@@H](CCCNC(=N)N)C(=O)O)cccc12 (Dansyl-[Pro(trans-4-F)]-[hPhe]-Arg-OH) | 20 |  |
| CN(C)c1cccc2c(S(=O)(=O)N3Cc4ccccc4C[C@H]3C(=O)N[C@@H](CCc3ccccc3)C(=O)N[C@@H](CCCNC(=N)N)C(=O)O)cccc12 (Dansyl-[Tic]-[hPhe]-Arg-OH) |  | Kd [1]: > 50 µM |
